# Target: mTOR/GbL/Raptor (mTORC1) (Homo sapiens, UniProt P42345)
# Test: mTOR/GbL/Raptor (mTORC1) ELISA assay
# Assay type: biochemical
# Settings: phosphorylation of 4E-BP1; 0.2 nM mTORC1, 10 μM ATP; read-out: IC50 in this assay (mTORC1 ELISA)
# Summary of the method: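 ELISA read-out: phospho-4E-BP1 captured on Ni-chelate plates and detected with anti-phospho antibody plus HRP-anti-IgG luminescence. The kinase step ran 120 min at ambient temperature with 0.2 nM human mTORC1, 10 µM ATP, 50 nM His-4E-BP1, 10 mM MnCl2, pH 7.2 HEPES.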
row,IC50 [µM],Compound
1,0.05 to 0.25,COC(=O)Nc1nc2ncc(-c3ccc4c(c3)CN(c3nc(CN(C)C)nc5c3CC(C)(C)CC5)CCO4)cc2[nH]1 [Example 580]
2,≤ 0.01,"COC(=O)Nc1nc2ncc(-c3ccc4c(c3)CN(c3ncnc5c3CC(C)(C)CC5)CCO4)cc2[nH]1 [Example 582, methyl {6-[4-(6,6-dimethyl-5,6,7,8-tetrahydroquinazolin-4-yl)-2,3,4,5-tetrahydro-1,4-benzoxazepin-7-yl]-1H-imidazo[4,5-b]pyridin-2-yl}carbamate]"
3,≤ 0.01,"COC(=O)Nc1nc2ncc(-c3ccc4c(c3)CN(c3ncnc5c3CC(C)(C)C=C5)CCO4)cc2[nH]1 [Example 583, methyl {6-[4-(6,6-dimethyl-5,6-dihydroquinazolin-4-yl)-2,3,4,5-tetrahydro-1,4-benzoxazepin-7-yl]-1H-imidazo[4,5-b]pyridin-2-yl}carbamate]"
4,≤ 0.01,"Cc1nc2ccc(-c3ccc4c(c3)CN(c3nc(CNC5CC5)nc(C)c3Cc3ccc(F)cc3)CCO4)cc2[nH]1 [Example 584, N-({5-[(4-fluorophenyl)methyl]-4-methyl-6-[7-(2-methyl-1H-benzimidazol-6-yl)-2,3-dihydro-1,4-benzoxazepin-4(5H)-yl]pyrimidin-2-yl}methyl)cyclopropanamine]"
5,0.01 to 0.05,"COCCNCc1nc2c(c(N3CCOc4ccc(-c5ccc6nc(C)[nH]c6c5)cc4C3)n1)CC(C)(C)CC2 [Example 585, N-({6,6-dimethyl-4-[7-(2-methyl-1H-benzimidazol-6-yl)-2,3-dihydro-1,4-benzoxazepin-4(5H)-yl]-5,6,7,8-tetrahydroquinazolin-2-yl}methyl)-2-(methyloxy)ethanamine]"
6,≤ 0.01,"Cc1nc2ccc(-c3ccc4c(c3)CN(c3nc(CNCCF)nc5c3CC(C)(C)CC5)CCO4)cc2[nH]1 [Example 586, N-({6,6-dimethyl-4-[7-(2-methyl-1H-benzimidazol-6-yl)-2,3-dihydro-1,4-benzoxazepin-4(5H)-yl]-5,6,7,8-tetrahydroquinazolin-2-yl}methyl)-2-fluoroethanamine]"
7,0.01 to 0.05,"Cc1nc2ccc(-c3ccc4c(c3)CN(c3nc(CNC5CCC5)nc5c3CC(C)(C)CC5)CCO4)cc2[nH]1 [Example 587, N-({6,6-dimethyl-4-[7-(2-methyl-1H-benzimidazol-6-yl)-2,3-dihydro-1,4-benzoxazepin-4(5H)-yl]-5,6,7,8-tetrahydroquinazolin-2-yl}methyl)cyclobutanamine]"
8,0.01 to 0.05,"Cc1nc2ccc(-c3ccc4c(c3)CN(c3nc(CNC5CC5)nc5c3CC(C)(C)CC5)CCO4)cc2[nH]1 [Example 588, N-({6,6-dimethyl-4-[7-(2-methyl-1H-benzimidazol-6-yl)-2,3-dihydro-1,4-benzoxazepin-4(5H)-yl]-5,6,7,8-tetrahydroquinazolin-2-yl}methyl)cyclopropanamine]"
9,≤ 0.01,"CCNCc1nc2c(c(N3CCOc4ccc(-c5ccc6nc(C)[nH]c6c5)cc4C3)n1)CC(C)(C)CC2 [Example 589, N-({6,6-dimethyl-4-[7-(2-methyl-1H-benzimidazol-6-yl)-2,3-dihydro-1,4-benzoxazepin-4(5H)-yl]-5,6,7,8-tetrahydroquinazolin-2-yl}methyl)ethanamine]"
10,≤ 0.01,"COCCNCc1nc2c(c(N3CCOc4ccc(-c5cnc6nc(C)[nH]c6c5)cc4C3)n1)CC(C)(C)CC2 [Example 590, N-({6,6-dimethyl-4-[7-(2-methyl-1H-imidazo[4,5-b]pyridin-6-yl)-2,3-dihydro-1,4-benzoxazepin-4(5H)-yl]-5,6,7,8-tetrahydroquinazolin-2-yl}methyl)-2-(methyloxy)ethanamine]"
11,0.01 to 0.05,"Cc1nc2ncc(-c3ccc4c(c3)CN(c3nc(CNCC(F)(F)F)nc5c3CC(C)(C)CC5)CCO4)cc2[nH]1 [Example 591, N-({6,6-dimethyl-4-[7-(2-methyl-1H-imidazo[4,5-b]pyridin-6-yl)-2,3-dihydro-1,4-benzoxazepin-4(5H)-yl]-5,6,7,8-tetrahydroquinazolin-2-yl}methyl)-2,2,2-trifluoroethanamine]"
12,≤ 0.01,"Cc1nc2ncc(-c3ccc4c(c3)CN(c3nc(CNCC(F)F)nc5c3CC(C)(C)CC5)CCO4)cc2[nH]1 [Example 592, N-({6,6-dimethyl-4-[7-(2-methyl-1H-imidazo[4,5-b]pyridin-6-yl)-2,3-dihydro-1,4-benzoxazepin-4(5H)-yl]-5,6,7,8-tetrahydroquinazolin-2-yl}methyl)-2,2-difluoroethanamine]"
13,≤ 0.01,"Cc1nc2ncc(-c3ccc4c(c3)CN(c3nc(CNCCF)nc5c3CC(C)(C)CC5)CCO4)cc2[nH]1 [Example 593, N-({6,6-dimethyl-4-[7-(2-methyl-1H-imidazo[4,5-b]pyridin-6-yl)-2,3-dihydro-1,4-benzoxazepin-4(5H)-yl]-5,6,7,8-tetrahydroquinazolin-2-yl}methyl)-2-fluoroethanamine]"
14,0.01 to 0.05,"Cc1nc2ncc(-c3ccc4c(c3)CN(c3nc(CNCC(C)C)nc5c3CC(C)(C)CC5)CCO4)cc2[nH]1 [Example 594, N-({6,6-dimethyl-4-[7-(2-methyl-1H-imidazo[4,5-b]pyridin-6-yl)-2,3-dihydro-1,4-benzoxazepin-4(5H)-yl]-5,6,7,8-tetrahydroquinazolin-2-yl}methyl)-2-methylpropan-1-amine]"
15,0.01 to 0.05,"Cc1nc2ncc(-c3ccc4c(c3)CN(c3nc(CNC(C)(C)C)nc5c3CC(C)(C)CC5)CCO4)cc2[nH]1 [Example 595, N-({6,6-dimethyl-4-[7-(2-methyl-1H-imidazo[4,5-b]pyridin-6-yl)-2,3-dihydro-1,4-benzoxazepin-4(5H)-yl]-5,6,7,8-tetrahydroquinazolin-2-yl}methyl)-2-methylpropan-2-amine]"
16,≤ 0.01,"Cc1nc2ncc(-c3ccc4c(c3)CN(c3nc(CN[C@@H](C)C(=O)O)nc5c3CC(C)(C)CC5)CCO4)cc2[nH]1 [Example 596, N-({6,6-dimethyl-4-[7-(2-methyl-1H-imidazo[4,5-b]pyridin-6-yl)-2,3-dihydro-1,4-benzoxazepin-4(5H)-yl]-5,6,7,8-tetrahydroquinazolin-2-yl}methyl)alanine]"
17,≤ 0.01,"Cc1nc2ncc(-c3ccc4c(c3)CN(c3nc(CNC5CCC5)nc5c3CC(C)(C)CC5)CCO4)cc2[nH]1 [Example 597, N-({6,6-dimethyl-4-[7-(2-methyl-1H-imidazo[4,5-b]pyridin-6-yl)-2,3-dihydro-1,4-benzoxazepin-4(5H)-yl]-5,6,7,8-tetrahydroquinazolin-2-yl}methyl)cyclobutanamine]"
18,≤ 0.01,"Cc1nc2ncc(-c3ccc4c(c3)CN(c3nc(CNC5CCCC5)nc5c3CC(C)(C)CC5)CCO4)cc2[nH]1 [Example 598, N-({6,6-dimethyl-4-[7-(2-methyl-1H-imidazo[4,5-b]pyridin-6-yl)-2,3-dihydro-1,4-benzoxazepin-4(5H)-yl]-5,6,7,8-tetrahydroquinazolin-2-yl}methyl)cyclopentanamine]"
19,≤ 0.01,"Cc1nc2ncc(-c3ccc4c(c3)CN(c3nc(CNC5CC5)nc5c3CC(C)(C)CC5)CCO4)cc2[nH]1 [Example 599, N-({6,6-dimethyl-4-[7-(2-methyl-1H-imidazo[4,5-b]pyridin-6-yl)-2,3-dihydro-1,4-benzoxazepin-4(5H)-yl]-5,6,7,8-tetrahydroquinazolin-2-yl}methyl)cyclopropanamine]"

# Source: patent US8648066B2 (Exelixis, Inc., priority 2009, dated 2014)
